Holding throughout (type): cell-based
The subject of series [1] is intracellular Leishmania major amastigotes (luciferase-expressing, in RAW 264.7 macrophages). Put plainly: Luciferase-expressing intracellular L. major amastigote-macrophage dose-response assay. The protocol:
Macrophages were harvested from culture by removing all spent media, adding in 10 mL of fresh media, scraping adherent macrophages from the culture flask, and counting macrophages using trypan blue. The cells were resuspended at 2.0 × 10^5 cells/mL, and then dispensed in a volume of 50 μL to yield a final concentration of 10,000 macrophages/well in 384-well tissue culture–treated sterile white plates (Nunc/Thermo Fisher, Rochester, NY) using a Tecan EVO Freedom robotics system (Tecan U.S., Durham, NC). The plates were then incubated at 37°C in 5% CO2 atmosphere for 24 hours. After incubation, the media was removed from each well using the Tecan EVO Freedom robot, and 1 × 10^5 transfected L. major promastigotes were added to each well in a volume of 50 μL in DMEM/heat-inactivated fetal bovine serum (HIFBS) media and allowed to invade the macrophages. After overnight incubation, the media was removed from each well using the Tecan Freedom EVO robot, and each well was subsequently washed three times with 40 μL of fresh DMEM/HIFBS medium to remove all extracellular promastigotes. After the third wash, 69.2 μL of DMEM/HIFBS medium was added to each well using the Tecan EVO Freedom robot. Drug plates were prepared with the Tecan EVO Freedom using sterile 96-well plates containing 12 duplicate 2-fold serial dilutions of each test compound suspended in dimethyl sulfoxide (DMSO) for dose–response determinations. Of diluted test compound, 7.8 μL was added to the 69.2 μL media present in each well providing a 10-fold final dilution of compound. The final concentration range tested was 0.0005–1 μM for all assays. The plates were placed in a modular incubator chamber (Billups-Rothenburg, Del Mar, CA) that contained a humidity source, consisting of soaked gauze in a weigh boat, which was placed in the bottom of the chamber. Both valves on the system were opened and using a vent filter (Millipore, Billerica, MA), attached to the one valve, mixed gas containing 5% O2, 5% CO2, and a balance of nitrogen was allowed to pass through the system for 60 seconds. After 60 seconds, the exit valve was closed and the mixed gas was allowed to flow into the chamber for 10 seconds. At that point the remaining valve was closed. Chambers were gassed every other day. The chambers were incubated at 37°C for 96 hours. After 96 hours of incubation, 7.5 μL luciferin solution (Caliper Life Science, Hopkinton, MA) diluted to 150 μg/mL was added to each well, and the plates were incubated for 30 minutes at 37°C in the dark. Each plate was read using an Infinite M200 plate reader (Tecan Inc., Durham, NC).
The 50% inhibitory concentrations (IC50) were then generated for each dose–response test using GraphPad Prism (GraphPad Software Inc., San Diego, CA) using the nonlinear regression (sigmoidal dose–response/variable slope) equation.

The nature of the next series: MTT cytotoxicity assay. As to conditions: human, HepG2 cells, 48-hour incubation. The protocol:
(§1) An 3-(4,5-dimethylthiazol-2-yl)-2,5-diphenyltetrazolium bromide (MTT) cytotoxicity counter assay was used to test all compounds from the MMV Malaria Box for cytotoxicity. The 384-well MTT cytotoxicity assay is a modification of the MTT method described by Ferrari and others[29] optimized for 384-well throughput. HepG2 target cells for this assay were cultured in […]. The HepG2 target cells for this assay were cultured as follows: HepG2 cells were cultured in complete Minimal Essential Medium (MEM; catalog no. 11090-099, Gibco-Invitrogen) prepared by supplementing MEM with 0.19% sodium bicarbonate (catalog no. 25080-094, Gibco-BRL), 10% HIFBS (catalog no. 16000-036, Gibco-Invitrogen, Grand Island, NY), 2 mM L-glutamine (catalog no. 25030-081, Gibco-Invitrogen), 0.1 mM MEM nonessential amino acids (catalog no. 11140-050, Gibco-Invitrogen), 0.009 mg/mL insulin (catalog no. I1882, Sigma), 1.76 mg/mL bovine serum albumin (catalog no. A1470, Sigma), 20 units/mL penicillin–streptomycin (catalog no. 15140-148, Gibco-Invitrogen), and 0.05 mg/mL gentamycin (catalog no. 15710-064, Gibco-Invitrogen). HepG2 cells cultured in complete MEM were first washed with 1× Hank's Balanced Salt Solution (catalog no. 14175-095, Invitrogen), trypsinized using a 0.25% trypsin/ethylenediaminetetraacetic acid solution (catalog no. 25200-106, Invitrogen), assessed for viability using trypan blue, and resuspended at 250,000 cells/mL. Drug plates were prepared with the Tecan EVO Freedom using sterile 96-well plates containing 12 duplicate 1.6-fold serial dilutions of each test compound suspended in DMSO. Of diluted test compound, 4.25 μL was then added to the 38.3 μL of media in each well providing a 10-fold final dilution of compound. Compounds were tested from a range of 57 to 10,000 ng/mL for all assays. The 4-azaindolo[2,1-b]quinazoline-6,12-dione was used as a toxicity control. After a 48-hour incubation period, 8 μL of a 1.5 mg/mL solution of MTT diluted in complete MEM media was added to each well. All plates were subsequently incubated in the dark for 1 hour at room temperature. After incubation, the media and drugs in each well was removed by shaking plate over sink, the plates were then left to dry in hood for 15 minutes. Next, 30 μL of isopropanol acidified by addition of hydrochloric acid at a final concentration of 0.36% was added to dissolve the formazan dye crystals created by reduction of MTT. Plates are put on a three-dimensional rotator for 15–30 minutes. Absorbance was determined in all wells using a Tecan icontrol 1.6 Infinite plate reader. The IC50 determinations were then generated for each toxicity dose–response test using GraphPad Prism (GraphPad Software Inc., San Diego, CA) using the nonlinear regression (sigmoidal dose–response/variable slope) equation.
Background: Formazan colour is commonly taken as a measure of viable cells.

The next series relates to HepG2 cells. Put plainly: MTT cytotoxicity assay. As to conditions: 48-hour incubation. The protocol:
as §1

[2] abbreviates: Leishmania major, RAW264.7, MMV Malaria Box L. major hits, intracellular amastigotes, 96 hours, read-out: IC50.
The mark [3] stands for this setting: Leishmania major, RAW264.7, rounded values quoted in the discussion, read-out: L. major amastigote-macrophage IC50.
Where [4] appears, read: Leishmania major, RAW264.7, transgenic luciferase expressing intracellular L. major amastigote-macrophage parasites, 96 hours, read-out: Geometric mean L. major IC50 ± SD (n).

Like-named read-outs stand apart in the source and are kept apart here.

`Cc1ccc(Cn2c(N3CCC(C(=O)NCc4cccs4)CC3)nc3ccccc32)cc1` [MMV007564, 1-[1-[(4-methylphenyl)methyl]benzimidazol-2-yl]-N-(thiophen-2-ylmethyl)piperidine-4-carboxamide]: the IC50 was found to be 60.8 nM in series [1] (setting [2]) and 61 nM in series [1] (setting [3]). Also, the IC50 at 48 h in the series “MTT cytotoxicity assay” is above 6060 nM.

For the compound `CCCCCn1c(=N)n(CC(O)COc2cccc(C)c2)c2ccccc21` (stereo not drawn) [MMV000444, 1-(2-imino-3-pentylbenzimidazol-1-yl)-3-(3-methylphenoxy)propan-2-ol], the IC50 in series [1] (setting [2]) amounted to 267 nM. The midpoint of inhibition in the series “MTT cytotoxicity assay”, the IC50 at 48 h, lay at 4130 nM.

Take `CC(=O)N1CCN(c2ccc(OCC3COC(Cn4ccnc4)(c4ccc(Cl)cc4Cl)O3)cc2)CC1` (stereo not drawn) [Ketoconazole, reference compound]: the IC50 in series [1] (setting [4]) worked out at 19800 ± 3900 nM.

`Cc1c(C)n(Cc2ccc(F)cc2)c2ccc(C(=O)NCc3ccco3)cc12` [MMV008149, 1-[(4-fluorophenyl)methyl]-N-(furan-2-ylmethyl)-2,3-dimethylindole-5-carboxamide]: the IC50 in series [1] (setting [2]) was determined as 229 nM. Moreover, the IC50 at 48 h in “MTT cytotoxicity assay” is 3260 nM.

In the case of `N=C(N)c1ccc(OCCCCCOc2ccc(C(=N)N)cc2)cc1` [Pentamidine, reference compound], the IC50 in series [1] (setting [4]) turned out to be 3420 ± 1700 nM.

For the compound `O=C(O)[C@@H]1[O][Sb](=[O])([O][Sb]2(=[O])[O][C@H]([C@H](O)CO)[C@H](O)[C@H](C(=O)O)[O]2)[O][C@H]([C@H](O)CO)[C@@H]1O.[Na+].[Na+].[Na+]` (stereo partly drawn) [Pentostam, reference compound], in series [1] (transgenic luciferase expressing intracellular L. major amastigote-macrophage parasites, 96 hours, read-out: Geometric mean L. major IC50 ± SD (n)), the IC50 was 9080 ± 350 nM.

Consider `COc1ccc(CCNC(=O)c2cc(S(=O)(=O)N3CC(C)CC(C)C3)ccc2Sc2ccc(F)cc2)cc1OC` (stereo not drawn) [MMV007557, N-[2-(3,4-dimethoxyphenyl)ethyl]-5-(3,5-dimethylpiperidin-1-yl)sulfonyl-2-(4-fluorophenyl)sulfanylbenzamide], for which the IC50 in series [1] (setting [2]) was determined as 180 nM. In the series “MTT cytotoxicity assay”, this compound gave an IC50 at 48 h above 6060 nM.

Take `C[C@@H]1[C@H](O)[C@@H](C)/C=C/C=C/C=C/C=C/C=C/C=C/C=C/[C@H](O[C@@H]2O[C@H](C)[C@@H](O)[C@H](N)[C@@H]2O)C[C@@H]2O[C@](O)(C[C@@H](O)C[C@@H](O)[C@H](O)CC[C@@H](O)C[C@@H](O)CC(=O)O[C@H]1C)C[C@H](O)[C@H]2C(=O)O` [Amphotericin B, reference compound]: the IC50 in series [1] (setting [4]) was 27 ± 10 nM.

Turning to `CCCCCCCCCCCCCCCCOP(=O)([O-])OCC[N+](C)(C)C` [Miltefosine, reference compound], in series [1] (setting [4]), the IC50 was found to be 550 ± 30 nM.

With `O=[N+]([O-])c1ccc(C=NNc2nc3ccccc3[nH]2)cc1` [MMV666607, 2-{2-[(4-nitrophenyl)methylidene]hydrazin-1-yl}-1H-1,3-benzodiazole], the 50% inhibitory concentration (IC50) in series [1] (setting [2]) and in series [1] (setting [3]) was 134 nM each time. Further, the half-maximal inhibitory concentration (IC50) at 48 h in “MTT cytotoxicity assay” is above 6060 nM.

In the case of `O=C(NC(c1ccccc1)c1ccc2cccnc2c1O)c1ccccc1` (stereo not drawn) [MMV666080, N-[(8-hydroxyquinolin-7-yl)-phenylmethyl]benzamide], the IC50 worked out at 14.9 nM in series [1] (setting [2]) and 15 nM in series [1] (setting [3]). This compound also yielded an IC50 at 48 h in “MTT cytotoxicity assay” above 6060 nM.

Consider `NC[C@@H]1O[C@H](O[C@H]2[C@@H](O)[C@H](O[C@@H]3[C@@H](O)[C@H](N)C[C@H](N)[C@H]3O[C@H]3O[C@H](CO)[C@@H](O)[C@H](O)[C@H]3N)O[C@@H]2CO)[C@H](N)[C@@H](O)[C@@H]1O` [Paromomycin, reference compound], for which the 50% inhibitory concentration (IC50) in series [1] (setting [4]) came out at 780 ± 310 nM.

As to `Cc1ccccc1OCCSc1nc2ccc(NC(=O)c3cccs3)cc2s1` [MMV007396, N-[2-[2-(2-methylphenoxy)ethylsulfanyl]-1,3-benzothiazol-6-yl]thiophene-2-carboxamide], the IC50 in series [1] (setting [2]) is 120 nM. The 50% inhibitory concentration (IC50) at 48 h in the series “MTT cytotoxicity assay” was 3500 nM.

For the compound `CCOC(=O)c1cn(CC)c2cc(N3CCCCC3)c(F)cc2c1=O` [MMV665827, ethyl 1-ethyl-6-fluoro-4-oxo-7-piperidin-1-ylquinoline-3-carboxylate], the IC50 in series [1] (setting [2]) was 478 nM. The compound also yielded a concentration for half-maximal inhibition (IC50) at 48 h in the series “MTT cytotoxicity assay” of 1720 nM.

`C[n+]1c2ccccc2nc2ccc(NCCO)cc21` [MMV396693, 2-[(10-methylphenazin-10-ium-2-yl)amino]ethanol]: the IC50 in series [1] (Leishmania major, RAW264.7, 96 h) is 53.4 nM. The IC50 at 48 h in “MTT cytotoxicity assay” is 5660 nM.

On to `c1ccc(CNc2nc(Nc3ccccc3)nc3ccccc23)cc1` [MMV006169, N-phenyl-N′-(phenylmethyl)quinazoline-2,4-diamine], for which the IC50 in series [1] (setting [2]) amounted to 467 nM. In the series “MTT cytotoxicity assay”, half-maximal inhibition (IC50 at 48 h) required 5660 nM.

For `CCN(CC)CCCCCCNc1cc(OC)cc2c(C)ccnc12` [Sitamaquine, reference compound], the IC50 in series [1] (setting [4]) is 10000 ± 370 nM.

Consider `COc1ccc(CCN2CCC(CN(C)Cc3cnn(-c4ccccc4)c3)CC2)cc1` [MMV666069], for which the IC50 in series [1] (setting [2]) amounted to 366 nM. In addition, in the series “MTT cytotoxicity assay”, the half-inhibitory concentration (IC50) at 48 h is 5820 nM.

Regarding `CCOc1ccc(N2C(N)=NC(N)=NC2(C)C)cc1` [MMV667486, 1-(4-ethoxyphenyl)-6,6-dimethyl-1,3,5-triazine-2,4-diamine], the IC50 in series [1] (setting [2]) was 193 nM. For the same compound, the concentration for half-maximal inhibition (IC50) at 48 h in “MTT cytotoxicity assay” was above 6060 nM.

Turning to “2-{2-[(4-nitrophenyl)methylidene]hydrazin-1-yl}-1H-1,3-benzodiazole [MMV666023]”, the IC50 in series [1] (MMV Malaria Box L. major hits, intracellular amastigotes, 96 hours, read-out: IC50) was 91.7 nM; in series [1] (rounded values quoted in the discussion, read-out: L. major amastigote-macrophage IC50), 92 nM; in the series on HepG2 cells, 1300 nM.

Take `CCCCN(CCCC)S(=O)(=O)c1ccc(NC(=O)c2ccco2)cc1` [MMV007881, N-[4-(dibutylsulfamoyl)phenyl]furan-2-carboxamide]: the IC50 in series [1] (setting [2]) came out at 418 nM. For the same compound, the IC50 at 48 h in the series “MTT cytotoxicity assay” was 5600 nM.

In general, IC50 refers to the concentration at which inhibition is half-maximal.
